According to patent US20230192705A1, “SHP2 INHIBITORS, COMPOSITIONS AND USES THEREOF” (Betta Pharmaceuticals Co., Ltd, priority 2020, published 2023):
pIC50: −log10 of the molar value.

Target: T1, SHP2 (Homo sapiens, UniProt Q06124)
T1 sequence (Q06124 1-593): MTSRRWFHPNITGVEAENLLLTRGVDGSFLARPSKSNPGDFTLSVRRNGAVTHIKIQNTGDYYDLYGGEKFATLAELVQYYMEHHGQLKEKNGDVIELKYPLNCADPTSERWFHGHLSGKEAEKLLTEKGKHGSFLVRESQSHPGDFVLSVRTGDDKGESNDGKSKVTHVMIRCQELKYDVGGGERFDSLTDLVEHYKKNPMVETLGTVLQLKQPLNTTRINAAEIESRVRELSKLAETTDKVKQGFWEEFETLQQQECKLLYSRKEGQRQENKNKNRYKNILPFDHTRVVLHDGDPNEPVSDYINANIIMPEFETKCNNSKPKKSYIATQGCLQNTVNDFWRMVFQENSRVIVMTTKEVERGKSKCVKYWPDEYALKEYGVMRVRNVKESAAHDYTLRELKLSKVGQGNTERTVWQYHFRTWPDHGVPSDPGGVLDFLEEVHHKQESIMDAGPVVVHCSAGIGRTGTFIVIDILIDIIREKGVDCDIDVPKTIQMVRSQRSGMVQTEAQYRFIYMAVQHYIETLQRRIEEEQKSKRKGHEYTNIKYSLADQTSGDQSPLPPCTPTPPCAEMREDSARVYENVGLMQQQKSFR
Assay: SHP2 allosteric inhibitor enzyme activity assay (DiFMUP fluorescence)
Type: biochemical
Conditions: class symbols
Description: SHP2 is activated by the binding of a bis-tyrosyl-phosphorylated peptide to its Src homologous 2 (SH2) domain. This subsequent activation step leads to the release of the automatic inhibition interface of SHP2, which in turn activates the SHP2 protein tyrosine phosphatase (PTP) and can be used for substrate recognition and reaction catalysis. The catalytic activity of SHP2 was monitored using the alternative DiFMUP in a rapid fluorescence assay format.
Assay procedures are as follows:
(1) Compound Formulation:
The compound of the present invention (10 mM stock solution) was diluted to a suitable multiple with 100% DMSO and assay buffer, and the final test concentration of the compound of the present invention was 1 μM, 0.333 μM, 0.111 μM, 0.0370 μM, 0.0124 μM, 0.00412 μM, 0.00137 μM, 0.00046 μM, 0.00015 μM, 0.00 μM;
(2) Preparation of Enzyme Reaction Working Fluid:
SHP2 enzyme activity was performed using a final reaction volume of 50 μL and the following assay buffer conditions in 96-well black polystyrene plates (flat bottom, low flange, non-bonding surface) (Perki Elmer, Cat #6005270) at room temperature: 60 mM HEPES, 75 mM NaCl, 75 mM KCl, 0.05% BRIJ-35, 1 mM EDTA, 5 mM DTT.
(3) Enzyme Catalytic Reaction and Data Monitoring:
Compounds of the present invention were added to the corresponding 96-well plates, and no compound and enzyme were provided as blank test wells. SHP2 Activating Peptide (IRS1_pY1172 (dPEG8)pY1222) was placed on ice for melting, and 0.5 μM was added per well, then 0.2 ng SHP2 protein samples were added to corresponding well plates, and incubated at room temperature for 1 hour. Substrate DiFMUP (Invitrogen, Cat #D6567) was added to the reaction at room temperature for 1 hour. Fluorescence signals were monitored using an enzyme reader (Envision, Perki Elmer) using excitation wavelengths and emission wavelengths of 340 nm and 450 nm, respectively.
Inhibition %=[1−(Conversion_sample−Conversion_min)/(Conversion_max−Conversion_min)]*100% Calculation formula: […]
where: Conversion_sample is the mean reading of the sample wells; Conversion_min is the mean reading of blank control wells, representing the reading of the wells without enzyme; Conversion_max is the mean of positive control wells, representing the reading of the wells without inhibitor.
The dose-response curve is fitted with GraphPad Prism software and IC50 was calculated by the “log[inhibitor] vs. response-variable slope” program.

Compound | pIC50
N[C@@H]1c2ccccc2CC12CCN(c1nc3[nH]nc(C4(c5ccncc5F)CC4)c3c(=O)[nH]1)CC2 [Example 58, (S)-6-(1-amino-1,3-dihydrospiro[indene-2,4′-piperidin]-1′-yl)-3-(1-(3-fluoropyridin-4-yl)cyclopropyl)-1,5-dihydro-4H-pyrazolo[3,4-d]pyrimidin-4-one] | ≥ 7.70
Nc1nccc(C2(c3n[nH]c4nc(N5CCC6(CC5)Cc5ccccc5[C@H]6N)[nH]c(=O)c34)CC2)c1F [Example 59, (S)-6-(1-amino-1,3-dihydrospiro[indene-2,4′-piperidin]-1′-yl)-3-(1-(2-amino-3-fluoropyridin-4-yl)cyclopropyl)-1,5-dihydro-4H-pyrazolo[3,4-d]pyrimidin-4-one] | ≥ 7.70
CC(=O)N1CC(F)(F)c2c1cccc2C1(c2n[nH]c3nc(N4CCC5(CC4)Cc4ccccc4[C@H]5N)[nH]c(=O)c23)CC1 [Example 60, (S)-3-(1-(1-acetyl-3,3-difluoroindolin-4-yl)cyclopropyl)-6-(1-amino-1,3-dihydrospiro[indene-2,4′-piperidin]-1′-yl)-1,5-dihydro-4H-pyrazolo[3,4-d]pyrimidin-4-one] | ≥ 7.70
CN(C)c1nccc(C2(c3n[nH]c4nc(N5CCC6(CC5)Cc5ccccc5[C@H]6N)[nH]c(=O)c34)CC2)c1Cl [Example 61, (S)-6-(1-amino-1,3-dihydrospiro[indene-2,4′-piperidin]-1′-yl)-3-(1-(3-chloro-2-(dimethylamino)pyridin-4-yl)cyclopropyl)-1,5-dihydro-4H-pyrazolo[3,4-d]pyrimidin-4-one] | ≥ 7.70
COc1nccc(C2(c3n[nH]c4nc(N5CCC6(CC5)Cc5ccccc5[C@H]6N)[nH]c(=O)c34)CC2)c1Cl [Example 62, (S)-6-(1-amino-1,3-dihydrospiro[indene-2,4′-piperidin]-1′-yl)-3-(1-(3-chloro-2-methoxypyridin-4-yl)cyclopropyl)-1,5-dihydro-4H-pyrazolo[3,4-d]pyrimidin-4-one] | ≥ 7.70
N[C@@H]1c2ccccc2CC12CCN(c1nc3[nH]nc(C4(c5cccc(-c6ccccc6)c5)CC4)c3c(=O)[nH]1)CC2 [Example 63, (S)-3-(1-([1,1′-biphenyl]-3-yl)cyclopropyl)-6-(1-amino-1,3-dihydrospiro[indene-2,4′-piperidin]-1′-yl)-1,5-dihydro-4H-pyrazolo[3,4-d]pyrimidin-4-one] | ≥ 7.70
N[C@@H]1c2ccccc2CC12CCN(c1nc3[nH]nc(C4(c5ccnc(N6CCOCC6)c5Cl)CC4)c3c(=O)[nH]1)CC2 [Example 65, (S)-6-(1-amino-1,3-dihydrospiro[indene-2,4′-piperidin]-1′-yl)-3-(1-(3-chloro-2-morpholinopyridin-4-yl)cyclopropyl)-1,5-dihydro-4H-pyrazolo[3,4-d]pyrimidin-4-one] | 7.22 to 7.70
N[C@@H]1c2ccccc2CC12CCN(c1nc3[nH]nc(C4(c5ccnc(N6CCC6)c5Cl)CC4)c3c(=O)[nH]1)CC2 [Example 66, (S)-6-(1-amino-1,3-dihydrospiro[indene-2,4′-piperidin]-1′-yl)-3-(1-(2-(azetidin-1-yl)-3-chloropyridin-4-yl)cyclopropyl)-1,5-dihydro-4H-pyrazolo[3,4-d]pyrimidin-4-one] | ≥ 7.70
N[C@@H]1c2ccccc2CC12CCN(c1nc3[nH]nc(C4(c5ccnc(NC6CCC6)c5Cl)CC4)c3c(=O)[nH]1)CC2 [Example 67, (S)-6-(1-amino-1,3-dihydrospiro[indene-2,4′-piperidin]-1′-yl)-3-(1-(3-chloro-2-(cyclobutylamino)pyridin-4-yl)cyclopropyl)-1,5-dihydro-4H-pyrazolo[3,4-d]pyrimidin-4-one] | ≥ 7.70
N[C@@H]1c2ccccc2CC12CCN(c1nc3[nH]nc(C4(c5ccc(Cl)nn5)CC4)c3c(=O)[nH]1)CC2 [Example 69, (S)-6-(1-amino-1,3-dihydrospiro[indene-2,4′-piperidin]-1′-yl)-3-(1-(6-chloropyridazin-3-yl)cyclopropyl)-1,5-dihydro-4H-pyrazolo[3,4-d]pyrimidin-4-one] | 7.22 to 7.70
N[C@@H]1c2ccccc2CC12CCN(c1nc3[nH]nc(C4(c5cnnc(Cl)c5)CC4)c3c(=O)[nH]1)CC2 [Example 70, (S)-6-(1-amino-1,3-dihydrospiro[indene-2,4′-piperidin]-1′-yl)-3-(1-(6-chloropyridazin-4-yl)cyclopropyl)-1,5-dihydro-4H-pyrazolo[3,4-d]pyrimidin-4-one] | ≥ 7.70
N[C@@H]1c2ccccc2CC12CCN(c1nc3[nH]nc(C4(c5ccnnc5)CC4)c3c(=O)[nH]1)CC2 [Example 71, (S)-6-(1-amino-1,3-dihydrospiro[indene-2,4′-piperidin]-1′-yl)-3-(1-(pyridazin-4-yl)cyclopropyl)-1,5-dihydro-4H-pyrazolo[3,4-d]pyrimidin-4-one] | ≥ 7.70
N[C@@H]1c2ccccc2CC12CCN(c1nc3[nH]nc(C4(c5ccnc(NC6CC6)c5Cl)CC4)c3c(=O)[nH]1)CC2 [Example 72, (S)-6-(1-amino-1,3-dihydrospiro[indene-2,4′-piperidin]-1′-yl)-3-(1-(3-chloro-2-(cyclopropylamino)pyridin-4-yl)cyclopropyl)-1,5-dihydro-4H-pyrazolo[3,4-d]pyrimidin-4-one] | ≥ 7.70
Cn1ccc(C2(c3n[nH]c4nc(N5CCC6(CC5)Cc5ccccc5[C@H]6N)[nH]c(=O)c34)CC2)c(Cl)c1=O [Example 73, (S)-6-(1-amino-1,3-dihydrospiro[indene-2,4′-piperidin]-1′-yl)-3-(1-(3-chloro-1-methyl-2-oxo-1,2-dihydropyridin-4-yl)cyclopropyl)-1,5-dihydro-4H-pyrazolo[3,4-d]pyrimidin-4-one] | ≥ 7.70
N[C@@H]1c2ccccc2CC12CCN(c1nc3[nH]nc(C4(c5cccc6ccccc56)CC4)c3c(=O)[nH]1)CC2 [Example 77, (S)-6-(1-amino-1,3-dihydrospiro[indene-2,4′-piperidin]-1′-yl)-3-(1-(naphthalen-1-yl)cyclopropyl)-1,5-dihydro-4H-pyrazolo[3,4-d]pyrimidin-4-one] | ≥ 7.70
N[C@@H]1c2ccccc2CC12CCN(c1nc3[nH]nc(C4(c5ccnc6ccccc56)CC4)c3c(=O)[nH]1)CC2 [Example 78, (S)-6-(1-amino-1,3-dihydrospiro[indene-2,4′-piperidin]-1′-yl)-3-(1-(quinolin-4-yl)cyclopropyl)-1,5-dihydro-4H-pyrazolo[3,4-d]pyrimidin-4-one] | ≥ 7.70
N[C@@H]1c2ccccc2CC12CCN(c1nc3[nH]nc(C4(c5ccnc6c5CCCN6)CC4)c3c(=O)[nH]1)CC2 [Example 79, (S)-6-(1-amino-1,3-dihydrospiro[indene-2,4′-piperidin]-1′-yl)-3-(1-(5,6,7,8-tetrahydro-1,8-naplitliyridin-4-yl)cyclopropyl)-1,5-dihydro-4H-pyrazolo[3,4-d]pyrimidin-4-one] | ≥ 7.70
N[C@@H]1c2ccccc2CC12CCN(c1nc3[nH]nc(C4(c5cccc6occc56)CC4)c3c(=O)[nH]1)CC2 [Example 80, (S)-6-(1-amino-1,3-dihydrospiro[indene-2,4′-piperidin]-1′-yl)-3-(1-(benzofuran-4-yl)cyclopropyl)-1,5-dihydro-4H-pyrazolo[3,4-d]pyrimidin-4-one] | ≥ 7.70
